Data reported in patent US8722014B2, “1 H-[1, 2, 3] triazole substituted amino acids and uses thereof” (Washington University, priority 2009, dated 2014).
Where “and” joins values, the source holds several entries; their conditions need not be identical. Identical values can stand only once. Like-named read-outs stand apart in the source and are kept apart here.

What was measured:
[1] = system: subcutaneous 9L gliosarcoma tumors
Description: Biodistribution studies were performed with both enantiomers, (R)-[^18F]4 and (S)-[^18F]4, using Fischer 344 rats (Charles River Laboratories, Wilmington Mass., USA) implanted with subcutaneous 9L gliosarcoma tumors. The tumors were implanted by subcutaneous injection of a suspension of approximately 1×10^69L gliosarcoma cells into the flanks of the rats. The tumors were allowed to grow for 3 weeks prior to the study. The rats were allowed food and water ad libitum prior to the biodistribution study. Anesthesia was achieved using a mixture of 1% isoflurane in oxygen, and the radiolabeled amino acid (R)-[^18F]4 or (S)-[^18F]4 was injected intravenously through a tail vein. The animals were euthanized in groups of four for each enantiomer at 5, 30 or 60 minutes after injection. The organs and tissues of interest and the tumors were dissected and weighed, and the amounts of activity were measured and decay corrected to the time of injection with a gamma counter. Standards for the doses were also measured with a gamma counter, and the data were normalized as the percent of total dose per gram of tissue (% ID/g) for each sample. The data were analyzed using GraphPad Prism software with 1-way ANOVAs for each enantiomer at each time point with Bonferroni post-tests. The tumor and brain uptake of radioactivity was directly compared for both enantiomers at each time point with a 2-way ANOVA with Bonferroni post-test. p-values less than or equal to 0.05 were considered statistically significant.

[2] = system: subcutaneous 9L gliosarcoma tumor
Description: (§1) MicroPET imaging studies were performed in 2 rats implanted with subcutaneous 9L tumors and 1 rat implanted with an intracranial tumor. The subcutaneous implantations were performed as in the biodistribution studies except that the tumors were allowed to grow for 11 days prior to imaging. The intracranial tumor was implanted in the left midcerebrum using a template method as described previously in La Regina, M. C., et al., Lab. Anim. 34: 265-271, 2000, using a total of 5×10^4 cells suspended in 5 µL total volume. […] Computed axial tomography (CT) images were acquired with a MicroCAT II System (ImTek Inc., Knoxville, Tenn.), and PET data were acquired with MicroPET-FOCUS 120 and 220 scanners (Concorde MicroSystems Knoxville Tenn., USA) for 120 minutes after the intravenous tail vein injection of 0.24 to 0.31 mCi of (S)-[^18F]4. The PET and CT images were fused and analyzed using an Amira software package (Carlsbad Calif., USA), and time-activity curves were generated using ASIPro PET data analysis software (Concorde MicroSystems, Knoxville Tenn., USA).

[3] = system: intracranial 9L gliosarcoma tumor
Description: as §1

[4] = post injection, subcutaneous tumor
[5] = post injection, intracranial tumor

For Cl.N[C@@H](Cc1cn(CC[18F])nn1)C(=O)O [(S)-[^18F]4, (S)-2-amino-3-[1-(2-fluoroethyl)-1H-[1,2,3]triazol-4-yl]propanoic acid hydrochloride salt-[^18F]], the “biodistribution: blood” value ([1]; 5 min after i.v. injection) was 0.98 ± 0.152 % ID/g, the “biodistribution: bone” value ([1]; 5 min after i.v. injection) was 0.47 ± 0.065 % ID/g and the “biodistribution: brain” value ([1]; 5 min after i.v. injection) was 0.08 ± 0.011 % ID/g. The “biodistribution: fat” value ([1]; 5 min after i.v. injection) was 0.09 ± 0.020 % ID/g, the “biodistribution: heart” value ([1]; 5 min after i.v. injection) was 0.43 ± 0.048 % ID/g and the “biodistribution: kidney” value ([1]; 5 min after i.v. injection) was 11.02 ± 1.224 % ID/g. For the same compound, the “biodistribution: large intestine” value ([1]; 5 min after i.v. injection) was 0.14 ± 0.012 % ID/g, the “biodistribution: liver” value ([1]; 5 min after i.v. injection) was 0.34 ± 0.035 % ID/g and the “biodistribution: lung” value ([1]; 5 min after i.v. injection) was 0.87 ± 0.117 % ID/g. The “biodistribution: muscle” value ([1]; 5 min after i.v. injection) was 0.18 ± 0.030 % ID/g, the “biodistribution: pancreas” value ([1]; 5 min after i.v. injection) was 2.75 ± 0.634 % ID/g and the “biodistribution: salivary gland” value ([1]; 5 min after i.v. injection) was 0.74 ± 0.043 % ID/g. The “biodistribution: small intestine” value ([1]; 5 min after i.v. injection) was 0.69 ± 0.076 % ID/g, the “biodistribution: spleen” value ([1]; 5 min after i.v. injection) was 0.72 ± 0.054 % ID/g and the “biodistribution: testes” value ([1]; 5 min after i.v. injection) was 0.21 ± 0.013 % ID/g. The “biodistribution: thyroid” value ([1]; 5 min after i.v. injection) was 0.71 ± 0.117% of total dose per organ, the “biodistribution: tumor” value ([1]; 5 min after i.v. injection) was 0.47 ± 0.069 % ID/g and the “tumor:brain ratio” value ([1]; 5 min after i.v. injection) was 5.9. For the same compound, the “tumor bone (femur) ratio” value ([1]; 30 min, biodistribution study) was 2.3, the “tumor to muscle ratio” value ([1]; 30 min, biodistribution study) was 4.7 and the “biodistribution: blood” value ([1]; 30 min after i.v. injection) was 0.47 ± 0.101 % ID/g. For the same compound, the “biodistribution: bone” value ([1]; 30 min after i.v. injection) was 0.36 ± 0.068 % ID/g, the “biodistribution: brain” value ([1]; 30 min after i.v. injection) was 0.06 ± 0.008 % ID/g and the “biodistribution: fat” value ([1]; 30 min after i.v. injection) was 0.05 ± 0.010 % ID/g. The “biodistribution: heart” value ([1]; 30 min after i.v. injection) was 0.38 ± 0.066 % ID/g, the “biodistribution: kidney” value ([1]; 30 min after i.v. injection) was 11.41 ± 1.939 % ID/g and the “biodistribution: large intestine” value ([1]; 30 min after i.v. injection) was 0.15 ± 0.028 % ID/g. The “biodistribution: liver” value ([1]; 30 min after i.v. injection) was 0.43 ± 0.091 % ID/g, the “biodistribution: lung” value ([1]; 30 min after i.v. injection) was 0.83 ± 0.179 % ID/g and the “biodistribution: muscle” value ([1]; 30 min after i.v. injection) was 0.18 ± 0.037 % ID/g. For the same compound, the “biodistribution: pancreas” value ([1]; 30 min after i.v. injection) was 2.20 ± 0.747 % ID/g, the “biodistribution: salivary gland” value ([1]; 30 min after i.v. injection) was 0.66 ± 0.139 % ID/g and the “biodistribution: small intestine” value ([1]; 30 min after i.v. injection) was 0.54 ± 0.073 % ID/g. For the same compound, the “biodistribution: spleen” value ([1]; 30 min after i.v. injection) was 0.75 ± 0.123 % ID/g, the “biodistribution: testes” value ([1]; 30 min after i.v. injection) was 0.17 ± 0.033 % ID/g and the “biodistribution: thyroid” value ([1]; 30 min after i.v. injection) was 0.44 ± 0.102% of total dose per organ. The “biodistribution: tumor” value ([1]; 30 min after i.v. injection) was 0.83 % ID/g and 0.83 ± 0.142 % ID/g, the “tumor:brain ratio” value ([1]; 30 min after i.v. injection) was 14.6 and the “tumor to lung ratio” value ([1]; 60 min) was 1.3. The “tumor to spleen ratio” value ([1]; 60 min) was 1.5, the “tumor to normal tissue ratios” value ([1]; 60 min, except in the lung and the spleen) was “at least 2” and the “biodistribution: blood” value ([1]; 60 min after i.v. injection) was 0.23 ± 0.015 % ID/g. The “biodistribution: bone” value ([1]; 60 min after i.v. injection) was 0.23 ± 0.011 % ID/g, the “biodistribution: brain” value ([1]; 60 min after i.v. injection) was 0.05 ± 0.001 % ID/g and the “biodistribution: fat” value ([1]; 60 min after i.v. injection) was 0.04 ± 0.007 % ID/g. The “biodistribution: heart” value ([1]; 60 min after i.v. injection) was 0.30 ± 0.011 % ID/g, the “biodistribution: kidney” value ([1]; 60 min after i.v. injection) was 4.79 ± 0.378 % ID/g and the “biodistribution: large intestine” value ([1]; 60 min after i.v. injection) was 0.10 ± 0.012 % ID/g. The “biodistribution: liver” value ([1]; 60 min after i.v. injection) was 0.32 ± 0.021 % ID/g, the “biodistribution: lung” value ([1]; 60 min after i.v. injection) was 0.56 ± 0.085 % ID/g and the “biodistribution: muscle” value ([1]; 60 min after i.v. injection) was 0.16 ± 0.006 % ID/g. For the same compound, the “biodistribution: pancreas” value ([1]; 60 min after i.v. injection) was 1.12 ± 0.151 % ID/g, the “biodistribution: salivary gland” value ([1]; 60 min after i.v. injection) was 0.36 ± 0.037 % ID/g and the “biodistribution: small intestine” value ([1]; 60 min after i.v. injection) was 0.31 ± 0.024 % ID/g. The “biodistribution: spleen” value ([1]; 60 min after i.v. injection) was 0.47 ± 0.035 % ID/g, the “biodistribution: testes” value ([1]; 60 min after i.v. injection) was 0.11 ± 0.006 % ID/g and the “biodistribution: thyroid” value ([1]; 60 min after i.v. injection) was 0.30 ± 0.024% of total dose per organ. The “biodistribution: tumor” value ([1]; 60 min after i.v. injection) was 0.72 ± 0.098 % ID/g, the “tumor:brain ratio” value ([1]; 60 min after i.v. injection) was 15.2 and the “magnitude of tumor uptake compared with the (R)-enantiomer” value ([1]; at all 3 time points, p<0.001) was “higher”. The “maximal tumor to brain ratio” value ([1]; biodistribution study) was 15, the “tumor to bone (spinal column) ratio” value ([2]; 30 min, MicroPET) was 2.5 and the “tumor to paraspinal muscle uptake ratio” value ([2]; 30 min, MicroPET) was “approximately 5.0”. For the same compound, the “time of peak uptake in adjacent normal tissues” value ([2]; paraspinal muscle and spinal column, post injection) was no more than 5 min, the “time of maximal tumor uptake” value [2, 4] was 32.5 min and the “time of near maximal tumor uptake” value [2, 4] was “approximately 20 min”. For the same compound, the “maximal standard uptake value (SUV)” value ([2]; subcutaneous 9L tumor) was 1.6, the “maximal tumor to brain ratio” value ([3]; MicroPET study) was “approximately 9” and the “time of peak uptake in adjacent normal tissues” value ([3]; brain, post injection) was no more than 5 min. The “maximal standard uptake value (SUV)” value ([3]; intracranial tumor) was 1.1, the “time of maximal tumor uptake” value [3, 5] was 27.5 min and the “time of near maximal tumor uptake” value [3, 5] was “approximately 20 min”.
